Test results: ChEMBL document CHEMBL1201862, “PubChem BioAssay data set” (2004)
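Following 48 hours of exposure in 96-well plates, responses at five concentrations were used to interpolate endpoints linearly. Abbreviation: GI50, concentration required for 50% inhibition of growth.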 Activity calls are given as the source filed them. Rule as the data show it: active = GI50 up to about 1.1 µM and inactive = higher.

Key:
Assay in all cases: growth of human tumour cells (NCI), 48 h
786-0 = tested on: 786-0
HCT-116 = tested on: HCT-116
HL-60 = tested on: HL-60
Hs-578T = tested on: Hs-578T
KM12 = tested on: KM12
LOX IMVI = tested on: LOX IMVI
MDA-MB-231 = tested on: MDA-MB-231
NCI-H460 = tested on: NCI-H460
NCI-H522 = tested on: NCI-H522
NCI/ADR-RES = tested on: NCI/ADR-RES
OVCAR-4 = tested on: OVCAR-4
OVCAR-8 = tested on: OVCAR-8
PC-3 = tested on: PC-3
RXF 393 = tested on: RXF 393
SF-268 = tested on: SF-268
SK-MEL-5 = tested on: SK-MEL-5
SK-OV-3 = tested on: SK-OV-3
SNB-19 = tested on: SNB-19
U-251 = tested on: U-251
UACC-257 = tested on: UACC-257

`COc1ccc2oc(=O)c(-c3nc4ccccc4o3)cc2c1` was tested, and the GI50 (786-0) was > 100 µM (inactive), the GI50 (HCT-116) was > 100 µM (inactive) and the GI50 (HL-60) was 29.9 µM (inactive). For the same molecule, the GI50 (Hs-578T) was > 100 µM (inactive), the GI50 (KM12) was 27.4 µM (inactive) and the GI50 (LOX IMVI) was > 100 µM (inactive). For the same molecule, the GI50 (MDA-MB-231) was 32.7 µM (inactive), the GI50 (NCI-H460) was 74 µM (inactive) and the GI50 (NCI-H522) was 50.2 µM (inactive). For the same molecule, the GI50 (NCI/ADR-RES) was 40.5 µM (inactive), the GI50 (OVCAR-4) was > 100 µM (inactive) and the GI50 (OVCAR-8) was > 100 µM (inactive). For the same molecule, the GI50 (PC-3) was > 100 µM (inactive), the GI50 (RXF 393) was 53.3 µM (inactive) and the GI50 (SF-268) was > 100 µM (inactive). The GI50 (SK-MEL-5) was 39.1 µM (inactive), the GI50 (SK-OV-3) was > 100 µM (inactive) and the GI50 (SNB-19) was > 100 µM (inactive). For the same molecule, the GI50 (U-251) was > 100 µM (inactive) and the GI50 (UACC-257) was > 100 µM (inactive).

`CCCc1nc(Cl)c(Cl)c(Cl)n1` was tested, and the GI50 (786-0) was 19.9 µM (inactive), the GI50 (HCT-116) was 9.68 µM (inactive) and the GI50 (HL-60) was 15.4 µM (inactive). For the same molecule, the GI50 (Hs-578T) was 14.6 µM (inactive), the GI50 (KM12) was 38.6 µM (inactive) and the GI50 (LOX IMVI) was 3.82 µM (inactive). For the same molecule, the GI50 (MDA-MB-231) was 19.3 µM (inactive), the GI50 (NCI-H460) was 38.9 µM (inactive) and the GI50 (NCI-H522) was 12.4 µM (inactive). The GI50 (NCI/ADR-RES) was 27 µM (inactive), the GI50 (OVCAR-4) was 16 µM (inactive) and the GI50 (OVCAR-8) was 18.7 µM (inactive). For the same molecule, the GI50 (PC-3) was 0.426 µM (active), the GI50 (RXF 393) was 19.2 µM (inactive) and the GI50 (SF-268) was 11.9 µM (inactive). For the same molecule, the GI50 (SK-MEL-5) was 44.5 µM (inactive), the GI50 (SK-OV-3) was 53.6 µM (inactive) and the GI50 (SNB-19) was 62.1 µM (inactive). The GI50 (U-251) was 14.7 µM (inactive) and the GI50 (UACC-257) was 32.7 µM (inactive).

In the case of `Cc1[nH]c(=O)nc(N/N=C/c2ccc(Cl)cc2)c1C(=O)Nc1ccc(Cl)cc1`, the GI50 (786-0) is reported as 19.4 µM (inactive), the GI50 (HCT-116) is reported as 7.59 µM (inactive) and the GI50 (HL-60) is reported as > 100 µM (inactive). For the same molecule, the GI50 (Hs-578T) was > 100 µM (inactive), the GI50 (KM12) was 32.9 µM (inactive) and the GI50 (LOX IMVI) was 14.9 µM (inactive). The GI50 (MDA-MB-231) was 9.2 µM (inactive), the GI50 (NCI-H460) was 10.4 µM (inactive) and the GI50 (NCI-H522) was 27.3 µM (inactive). For the same molecule, the GI50 (NCI/ADR-RES) was 34.1 µM (inactive), the GI50 (OVCAR-4) was 9.95 µM (inactive) and the GI50 (OVCAR-8) was 10.2 µM (inactive). For the same molecule, the GI50 (PC-3) was > 60.1 µM (inactive), the GI50 (RXF 393) was 23 µM (inactive) and the GI50 (SF-268) was 41.8 µM (inactive). The GI50 (SK-MEL-5) was 18 µM (inactive), the GI50 (SK-OV-3) was 12.2 µM (inactive) and the GI50 (SNB-19) was 7.41 µM (inactive). The GI50 (U-251) was 14.5 µM (inactive) and the GI50 (UACC-257) was 31 µM (inactive).

For `COP(=O)(OC)[C@@](O)(c1ccccc1)[C@@H](O)[C@@H](O)c1ccccc1`, the GI50 (786-0) was 64.6 µM (inactive), the GI50 (HCT-116) was 29.3 µM (inactive) and the GI50 (HL-60) was > 100 µM (inactive). The GI50 (Hs-578T) was > 100 µM (inactive), the GI50 (KM12) was > 100 µM (inactive) and the GI50 (LOX IMVI) was 17.8 µM (inactive). The GI50 (MDA-MB-231) was > 100 µM (inactive), the GI50 (NCI-H460) was > 100 µM (inactive) and the GI50 (NCI-H522) was 37.4 µM (inactive). For the same molecule, the GI50 (NCI/ADR-RES) was > 100 µM (inactive), the GI50 (OVCAR-4) was > 100 µM (inactive) and the GI50 (OVCAR-8) was > 100 µM (inactive). For the same molecule, the GI50 (PC-3) was > 100 µM (inactive), the GI50 (RXF 393) was > 100 µM (inactive) and the GI50 (SF-268) was > 100 µM (inactive). For the same molecule, the GI50 (SK-MEL-5) was > 100 µM (inactive), the GI50 (SK-OV-3) was > 100 µM (inactive) and the GI50 (SNB-19) was > 100 µM (inactive). The GI50 (U-251) was 88.5 µM (inactive) and the GI50 (UACC-257) was > 100 µM (inactive).

With `CCOC(=O)N1CCN(c2c(C)nc(C)nc2O)CC1` the GI50 (786-0) was > 100 µM (inactive), the GI50 (HCT-116) was > 100 µM (inactive) and the GI50 (HL-60) was > 100 µM (inactive). The GI50 (Hs-578T) was > 100 µM (inactive), the GI50 (KM12) was > 100 µM (inactive) and the GI50 (LOX IMVI) was > 100 µM (inactive). The GI50 (MDA-MB-231) was > 100 µM (inactive), the GI50 (NCI-H460) was > 100 µM (inactive) and the GI50 (NCI-H522) was > 100 µM (inactive). For the same molecule, the GI50 (NCI/ADR-RES) was > 100 µM (inactive), the GI50 (OVCAR-4) was > 100 µM (inactive) and the GI50 (OVCAR-8) was > 100 µM (inactive). For the same molecule, the GI50 (PC-3) was > 100 µM (inactive), the GI50 (RXF 393) was > 100 µM (inactive) and the GI50 (SF-268) was > 100 µM (inactive). For the same molecule, the GI50 (SK-MEL-5) was > 100 µM (inactive), the GI50 (SK-OV-3) was > 100 µM (inactive) and the GI50 (SNB-19) was > 100 µM (inactive). For the same molecule, the GI50 (U-251) was > 100 µM (inactive) and the GI50 (UACC-257) was > 100 µM (inactive).

In the case of `CC[C@H](C)C1=C(OC(C)=O)[N@+]2([O-])Oc3ccc(-c4c(O)c(O)c(-c5ccc(OC(C)=O)cc5)c(OC(C)=O)c4OC(C)=O)cc3O[C@]2([C@@H](C)CC)C(=O)N1O`, the GI50 (786-0) is reported as 14.1 µM (inactive), the GI50 (HCT-116) is reported as 10.8 µM (inactive) and the GI50 (HL-60) is reported as 15.9 µM (inactive). For the same molecule, the GI50 (Hs-578T) was 29.3 µM (inactive), the GI50 (KM12) was 20.6 µM (inactive) and the GI50 (LOX IMVI) was 17.5 µM (inactive). The GI50 (MDA-MB-231) was 17.8 µM (inactive), the GI50 (NCI-H460) was 18.5 µM (inactive) and the GI50 (NCI-H522) was 10.6 µM (inactive). The GI50 (NCI/ADR-RES) was 18.5 µM (inactive), the GI50 (OVCAR-4) was 11.1 µM (inactive) and the GI50 (OVCAR-8) was 18.4 µM (inactive). For the same molecule, the GI50 (PC-3) was 20.6 µM (inactive), the GI50 (RXF 393) was 29.6 µM (inactive) and the GI50 (SF-268) was 18.8 µM (inactive). The GI50 (SK-MEL-5) was 16.4 µM (inactive), the GI50 (SK-OV-3) was 17.3 µM (inactive) and the GI50 (SNB-19) was 32.1 µM (inactive). For the same molecule, the GI50 (U-251) was 24.3 µM (inactive) and the GI50 (UACC-257) was > 50 µM (inactive).

With `O=C1C=CC(=O)c2c(O)ccc(O)c21` [NAPHTHAZALIN] the GI50 (786-0) was 1.14 µM (inactive), the GI50 (HCT-116) was 0.9 µM (active) and the GI50 (HL-60) was 0.292 µM (active). The GI50 (Hs-578T) was 2.17 µM (inactive), the GI50 (KM12) was 5.25 µM (inactive) and the GI50 (LOX IMVI) was 1.56 µM (inactive). The GI50 (MDA-MB-231) was 2.22 µM (inactive), the GI50 (NCI-H460) was 2.47 µM (inactive) and the GI50 (NCI-H522) was 0.505 µM (active). The GI50 (NCI/ADR-RES) was 1.92 µM (inactive), the GI50 (OVCAR-4) was 2.39 µM (inactive) and the GI50 (OVCAR-8) was 0.91 µM (active). The GI50 (PC-3) was 12.8 µM (inactive), the GI50 (RXF 393) was 1.03 µM (active) and the GI50 (SF-268) was 2.52 µM (inactive). The GI50 (SK-MEL-5) was 2.14 µM (inactive), the GI50 (SK-OV-3) was 12.7 µM (inactive) and the GI50 (SNB-19) was 8.41 µM (inactive). For the same molecule, the GI50 (U-251) was 5.79 µM (inactive) and the GI50 (UACC-257) was 1.07 µM (active).
